In patent US20210260051A1, “COMBINATION OF EZH2 INHIBITOR AND CHECKPOINT THERAPY FOR THE TREATMENT OF CANCER” (Board of Regents, The University of Texas System, priority 2018, published 2021):

Experiments:
[1] = tested on: GFP+FoxP3+ regulatory T cells (iTregs); test: RNA sequencing of GFP+FoxP3+ regulatory T cells differentiated with CPI-1205 or DMSO; type: cell-based, mouse; conditions: CPI-1205 vs DMSO
Source text: FIGS. 5A-5C: Naïve T cells from FoxP3enhanced green fluorescent protein (eGFP) C57BL/6 mice that were differentiated into iTregs in the presence or absence of CPI-1205. GFP^+FoxP3^+ regulatory T cells were subsequently used for RNA sequencing analysis. (FIG. 5A) Ingenuity Pathway Analysis of RNA sequencing data of regulatory T cells differentiated in the presence of DMSO or CPI-1205. (FIG. 5B) Differentially expressed genes (DEGs) seen following differentiation of inducible regulatory T cells in presence of CPI-1205 or DMSO. (FIG. 5C) Luminex-based cytokine analysis of culture supernatant from inducible regulatory T cells following differentiation with CPI-1205 or DMSO. 2 tailed student t test was used to determine significance; NS, not significant. **p<0.01.
To understand CPI-1205-mediated molecular changes underlying the loss of suppressive activity of regulatory T cells, naïve murine T cells (CD4^+CD25^low CD44^low CD62^hi) from FoxP3-enhanced green fluorescent protein (eGFP) C57BL/6 mice were differentiated into iTregs in the presence or absence of CPI-1205. Purified GFP^+FoxP3^+ regulatory T cells were subsequently used for RNA sequencing analysis. […] The cytokine levels were subsequently examined in the culture supernatant of the iTregs that were differentiated with and without CPI-1205. […] CPI-1205 can also skew the phenotype of iTregs to pro-inflammatory cytokine producing effector-like T cells. In the study, it was noted that EZH2 inhibition leads to decreased expression of not only FoxP3 but also other critical genes, such as NRP1 and BACH2, which are required for regulatory T cell stability (16-18). CPI-1205 treated regulatory T cells seem to acquire the phenotype of so called “exFoxP3” cells which was previously shown to have an activated memory phenotype (Zhou et al., 2009).
In vitro T cell assays. Human peripheral regulatory T cells were isolated from peripheral blood mononuclear cells by enriching for CD4^+CD127^low CD25^+ cells using the EasySep Human Regulatory T Cell Isolation Kit (STEMCELL Technologies, Cambridge, Mass.). For mouse in vitro regulatory T cell differentiation, CD4^+CD25^low CD44^low CD62L^hinaïve splenic T cells were isolated from C57BL/6 mice using BD FACSAria (BD Biosciences, San Jose, Calif.). The cells were then differentiated in the presence of recombinant murine IL-2 (R&D, 402-ML), tumor growth factor-β (TGF-β, R&D 7666-MB), CPI-1205 or dimethyl sulfoxide (DMSO) and cultured for 6 days.
RNA sequencing. RNA was extracted from peripheral CD4 T cells isolated from patients with metastatic melanoma and from in vitro differentiated GFP^+ regulatory T cells. RNA sequencing reactions were performed by Active Motif (Carlsbad, Calif.) and Ocean Ridge Biosciences (Deerfield, Fla.) using an Illumina HiSeq 50-bp platform. For bioinformatics analysis, the raw reads were aligned to the mm10 reference genome using TopHat2. HTSeq count was used to count the raw reads that were uniquely mapped to each gene. DESeq2 was then applied to normalize the raw read counts and identify the differentially expressed genes between the groups. The beta-uniform mixture model was used to fit the p value distribution for multiple testing adjustments. The lists of differentially expressed genes were then used as input into Ingenuity Pathway Analysis for pathway analysis. RNA-sequencing data were deposited in the NCBI's Gene Expression Omnibus database.

[2] = patients, continuous daily dosing; cited from earlier work

In the case of `COc1cc(C)[nH]c(=O)c1CNC(=O)c1c(C)n([C@H](C)C2CCN(CC(F)(F)F)CC2)c2ccccc12` [CPI-1205, N-[(4-methoxy-6-methyl-2-oxo-1H-pyridin-3-yl)methyl]-2-methyl-1-[(1R)-1-[1-(2,2,2-trifluoroethyl)piperidin-4-yl]ethyl]indole-3-carboxamide], the “pro-inflammatory pathways (Th-1/Th-2), Ingenuity Pathway Analysis” value ([1]; FIG. 5A) is reported as “upregulation”, the BACH2 expression ([1]; FIG. 5B) is reported as “decreased” and the FoxP3 expression ([1]; FIG. 5B) is reported as “decreased”. The “effector cytokines and chemokines (differentially expressed genes)” value ([1]; FIG. 5B) was “increase”, the “neuropilin 1 (NRP1) expression” value ([1]; FIG. 5B) was “decreased” and the dose-limiting toxicities [2] was “no dose-limiting toxicities”. The tolerability [2] was “well tolerated”.
